# Experimental data: ChEMBL document CHEMBL3885861, “Open TG-GATES”
# Species on record: Rattus norvegicus
# Assay: Open TG-GATES - Regimen: Single
# Assay type: toxicity, organism-based, Sprague-Dawley
# Parameters: regimen Single, gender Male, age 6 weeks
# Conditions: in vivo, po, 100 mg/kg, route gavage, dose level Middle; for APTT / Bas / Eos / Fbg / Hb / Ht / Lym / MCH / MCHC / MCV / Mono / Neu / PT / Plat / RBC / Ret / WBC: tissue Blood; for KIDNEY_L / KIDNEY_R / KIDNEY_TOTAL: tissue Kidney; for LIVER: tissue Liver; for A/G / ALP / ALT / AST / BUN / CRE / Ca / Cl / DBIL / GLC / IP / K / LDH / Na / PL / RALB / TBIL / TC / TG / TP / gamma-GTP: tissue Plasma
structure (smiles),measurement,setting,value
CCc1oc2ccccc2c1C(=O)c1cc(I)c(O)c(I)c1 [BENZIODARONE],TERMINAL_BW,3 h,215.5 g
same,APTT,3 h,16.9 s
same,Bas,3 h,0%
same,Eos,3 h,0.6%
same,Fbg,3 h,189.8 mg/dL
same,Hb,3 h,13.1 g/dL
same,Ht,3 h,39.1%
same,Lym,3 h,75.8%
same,MCH,3 h,21.8 pg
same,MCHC,3 h,33.6%
same,MCV,3 h,64.9 fL
same,Mono,3 h,8.8%
same,Neu,3 h,15%
same,PT,3 h,11.9 s
same,Plat,3 h,118.7 x10_4/uL
same,RBC,3 h,603 x10_4/ul
same,Ret,3 h,9.2%
same,WBC,3 h,94.2 x10_2/uL
same,KIDNEY_L,3 h,1 g
same,KIDNEY_R,3 h,1 g
same,KIDNEY_TOTAL,3 h,2 g
same,LIVER,3 h,10.2 g
same,A/G,3 h,2.1
same,ALP,3 h,966.8 IU/L
same,ALT,3 h,36.6 IU/L
same,AST,3 h,69 IU/L
same,BUN,3 h,12.6 mg/dL
same,CRE,3 h,0.5 mg/dL
same,Ca,3 h,10.5 mg/dL
same,Cl,3 h,102.4 meq/L
same,DBIL,3 h,0.02 mg/dL
same,GLC,3 h,201.2 mg/dL
same,IP,3 h,9.3 mg/dL
same,K,3 h,4.4 meq/L
same,LDH,3 h,110 IU/L
same,Na,3 h,140.4 meq/L
same,PL,3 h,128.6 mg/dL
same,RALB,3 h,3.5 g/dL
same,TBIL,3 h,0.5 mg/dL
same,TC,3 h,73.8 mg/dL
same,TG,3 h,52.4 mg/dL
same,TP,3 h,5.2 g/dL
same,gamma-GTP,3 h,1.8 IU/L
same,TERMINAL_BW,6 h,210.6 g
same,APTT,6 h,16.8 s
same,Bas,6 h,0%
same,Eos,6 h,1%
same,Fbg,6 h,217.8 mg/dL
same,Hb,6 h,13.6 g/dL
same,Ht,6 h,40.7%
same,Lym,6 h,73.2%
same,MCH,6 h,21.7 pg
same,MCHC,6 h,33.3%
same,MCV,6 h,65.1 fL
same,Mono,6 h,9.2%
same,Neu,6 h,16.4%
same,PT,6 h,11.8 s
same,Plat,6 h,109.1 x10_4/uL
same,RBC,6 h,625.8 x10_4/ul
same,Ret,6 h,10.1%
same,WBC,6 h,113.1 x10_2/uL
same,KIDNEY_L,6 h,0.9 g
same,KIDNEY_R,6 h,0.9 g
same,KIDNEY_TOTAL,6 h,1.9 g
same,LIVER,6 h,9.7 g
same,A/G,6 h,2
same,ALP,6 h,826.8 IU/L
same,ALT,6 h,32.6 IU/L
same,AST,6 h,61.2 IU/L
same,BUN,6 h,12.4 mg/dL
same,CRE,6 h,0.5 mg/dL
same,Ca,6 h,10.7 mg/dL
same,Cl,6 h,103.2 meq/L
same,DBIL,6 h,0.02 mg/dL
same,GLC,6 h,182.4 mg/dL
same,IP,6 h,9.9 mg/dL
same,K,6 h,4.6 meq/L
same,LDH,6 h,108.4 IU/L
same,Na,6 h,140.4 meq/L
same,PL,6 h,133 mg/dL
same,RALB,6 h,3.6 g/dL
same,TBIL,6 h,0.3 mg/dL
same,TC,6 h,74.4 mg/dL
same,TG,6 h,77.8 mg/dL
same,TP,6 h,5.4 g/dL
same,gamma-GTP,6 h,1.6 IU/L
same,TERMINAL_BW,9 h,209.5 g
same,APTT,9 h,16.8 s
same,Bas,9 h,0%
same,Eos,9 h,1%
same,Fbg,9 h,202.2 mg/dL
same,Hb,9 h,13.6 g/dL
same,Ht,9 h,40.8%
same,Lym,9 h,76.4%
same,MCH,9 h,21.3 pg
same,MCHC,9 h,33.3%
same,MCV,9 h,63.9 fL
same,Mono,9 h,7.4%
same,Neu,9 h,15.4%
same,PT,9 h,12.4 s
same,Plat,9 h,121.3 x10_4/uL
same,RBC,9 h,638.4 x10_4/ul
same,Ret,9 h,8.2%
same,WBC,9 h,86.5 x10_2/uL
same,KIDNEY_L,9 h,1 g
same,KIDNEY_R,9 h,0.9 g
same,KIDNEY_TOTAL,9 h,1.9 g
same,LIVER,9 h,8.9 g
same,A/G,9 h,2.3
same,ALP,9 h,766.6 IU/L
same,ALT,9 h,29.8 IU/L
same,AST,9 h,63.4 IU/L
same,BUN,9 h,13 mg/dL
same,CRE,9 h,0.5 mg/dL
same,Ca,9 h,10.3 mg/dL
same,Cl,9 h,105.2 meq/L
same,DBIL,9 h,0.07 mg/dL
same,GLC,9 h,194.8 mg/dL
same,IP,9 h,10.9 mg/dL
same,K,9 h,4.5 meq/L
same,LDH,9 h,108.8 IU/L
same,Na,9 h,142.4 meq/L
same,PL,9 h,122.8 mg/dL
same,RALB,9 h,3.7 g/dL
same,TBIL,9 h,0.3 mg/dL
same,TC,9 h,68.2 mg/dL
same,TG,9 h,56.6 mg/dL
same,TP,9 h,5.4 g/dL
same,gamma-GTP,9 h,0.6 IU/L
same,TERMINAL_BW,24 h,228.7 g
same,APTT,24 h,17.4 s
same,Bas,24 h,0%
same,Eos,24 h,1.2%
same,Fbg,24 h,196.8 mg/dL
same,Hb,24 h,13.2 g/dL
same,Ht,24 h,39.3%
same,Lym,24 h,73.8%
same,MCH,24 h,22 pg
same,MCHC,24 h,33.7%
same,MCV,24 h,65.4 fL
same,Mono,24 h,9.6%
same,Neu,24 h,15.6%
same,PT,24 h,12.1 s
same,Plat,24 h,113.1 x10_4/uL
same,RBC,24 h,601.2 x10_4/ul
same,Ret,24 h,9%
same,WBC,24 h,106.2 x10_2/uL
same,KIDNEY_L,24 h,1 g
same,KIDNEY_R,24 h,1 g
same,KIDNEY_TOTAL,24 h,2 g
same,LIVER,24 h,11.9 g
same,A/G,24 h,2.1
same,ALP,24 h,1017.4 IU/L
same,ALT,24 h,36.8 IU/L
same,AST,24 h,66 IU/L
same,BUN,24 h,17.8 mg/dL
same,CRE,24 h,0.5 mg/dL
same,Ca,24 h,10.6 mg/dL
same,Cl,24 h,104.8 meq/L
same,DBIL,24 h,0.006 mg/dL
same,GLC,24 h,196 mg/dL
same,IP,24 h,7.6 mg/dL
same,K,24 h,4.6 meq/L
same,LDH,24 h,87.6 IU/L
same,Na,24 h,140.8 meq/L
same,PL,24 h,129 mg/dL
same,RALB,24 h,3.7 g/dL
same,TBIL,24 h,0.4 mg/dL
same,TC,24 h,65.8 mg/dL
same,TG,24 h,84 mg/dL
same,TP,24 h,5.5 g/dL
same,gamma-GTP,24 h,1 IU/L
